Values after ≈ are worked out from the molar mass of the structure shown. Blank lines part the entries; values can stand above or below the molecule they belong to.
Tests used:
Format in all cases: functional
[1] = test system: Pseudomonas aeruginosa; assay: Antimicrobial activity against Pseudomonas aeruginosa isolate K34-7 producing metallo-beta-lactamase VIM2 by Etest
[2] = test system: Pseudomonas aeruginosa; assay: Antimicrobial activity against Pseudomonas aeruginosa isolate BU-43038 producing metallo-beta-lactamase VIM2 by Etest
[3] = test system: Pseudomonas aeruginosa; assay: Antimicrobial activity against Pseudomonas aeruginosa isolate B4-25753 producing metallo-beta-lactamase VIM2 by Etest
[4] = test system: Pseudomonas aeruginosa; assay: Antimicrobial activity against Pseudomonas aeruginosa isolate BU-20287 producing metallo-beta-lactamase VIM2 by Etest
[5] = test system: Pseudomonas aeruginosa; assay: Antimicrobial activity against Pseudomonas aeruginosa isolate OS-210 producing metallo-beta-lactamase VIM2 by Etest
[6] = test system: Pseudomonas aeruginosa; assay: Antimicrobial activity against Pseudomonas aeruginosa isolate K34-73 producing metallo-beta-lactamase VIM4 by Etest
[7] = test system: Pseudomonas aeruginosa; assay: Antimicrobial activity against Pseudomonas aeruginosa isolate AK5493 producing metallo-beta-lactamase VIM2 by Etest
[8] = test system: Pseudomonas aeruginosa; assay: Antimicrobial activity against Pseudomonas aeruginosa isolate BNL-1681 producing metallo-beta-lactamase VIM2 by Etest
[9] = test system: Pseudomonas aeruginosa; assay: Antimicrobial activity against Pseudomonas aeruginosa isolate K45-32 producing metallo-beta-lactamase VIM2 by Etest
[10] = test system: Pseudomonas aeruginosa; assay: Antimicrobial activity against Pseudomonas aeruginosa isolate K44-24 producing metallo-beta-lactamase IMP14 by Etest
[11] = test system: Pseudomonas aeruginosa; assay: Antimicrobial activity against Pseudomonas aeruginosa isolate PA66 producing metallo-beta-lactamase VIM4 by Etest
[12] = test system: Pseudomonas aeruginosa; assay: Antimicrobial activity against Pseudomonas aeruginosa isolate BU-36178 producing metallo-beta-lactamase VIM2 by Etest
[13] = test system: Pseudomonas aeruginosa; assay: Antimicrobial activity against Pseudomonas aeruginosa isolate U9-19005 producing metallo-beta-lactamase VIM2 by Etest

MIC [1]: > 32 µg/mL
MIC [2]: > 32 µg/mL
MIC [3]: > 32 µg/mL
MIC [4]: > 32 µg/mL
MIC [5]: > 32 µg/mL
MIC [6]: > 32 µg/mL
MIC [7]: > 32 µg/mL
MIC [8]: > 32 µg/mL
MIC [9]: > 32 µg/mL
MIC [10]: > 32 µg/mL
MIC [11]: > 32 µg/mL
MIC [12]: > 32 µg/mL
MIC [13]: > 32 µg/mL
Compound: O=C(O)C1=CC[C@@H]2CC(=O)N12 [CARBAPENEM]

Compound: NCC[C@H](O)C(=O)N[C@@H]1C[C@H](N)[C@@H](O[C@H]2O[C@H](CN)[C@@H](O)[C@H](O)[C@H]2O)[C@H](O)[C@H]1O[C@H]1O[C@H](CO)[C@@H](O)[C@H](N)[C@H]1O [AMIKACIN]
MIC [1]: 32 µg/mL (≈ 54.6 µM)
MIC [2]: 32 µg/mL (≈ 54.6 µM)
MIC [3]: 32 µg/mL (≈ 54.6 µM)
MIC [4]: 32 µg/mL (≈ 54.6 µM)
MIC [5]: 32 µg/mL (≈ 54.6 µM)
MIC [6]: 32 µg/mL (≈ 54.6 µM)
MIC [7]: 32 µg/mL (≈ 54.6 µM)
MIC [8]: 32 µg/mL (≈ 54.6 µM)
MIC [9]: 32 µg/mL (≈ 54.6 µM)
MIC [10]: 32 µg/mL (≈ 54.6 µM)
MIC [11]: 32 µg/mL (≈ 54.6 µM)
MIC [12]: 32 µg/mL (≈ 54.6 µM)
MIC [13]: 32 µg/mL (≈ 54.6 µM)

Compound: CC(C)(O/N=C(\C(=O)N[C@@H]1C(=O)N2C(C(=O)[O-])=C(C[n+]3ccccc3)CS[C@H]12)c1csc(N)n1)C(=O)O [CEFTAZIDIME]
MIC [1]: 64 µg/mL (≈ 117 µM)
MIC [2]: 64 µg/mL (≈ 117 µM)
MIC [3]: 64 µg/mL (≈ 117 µM)
MIC [4]: 64 µg/mL (≈ 117 µM)
MIC [5]: 64 µg/mL (≈ 117 µM)
MIC [6]: 64 µg/mL (≈ 117 µM)
MIC [7]: 64 µg/mL (≈ 117 µM)
MIC [8]: 64 µg/mL (≈ 117 µM)
MIC [9]: 64 µg/mL (≈ 117 µM)
MIC [10]: 64 µg/mL (≈ 117 µM)
MIC [11]: 64 µg/mL (≈ 117 µM)
MIC [12]: 64 µg/mL (≈ 117 µM)
MIC [13]: 64 µg/mL (≈ 117 µM)

Compound: NC[C@H]1O[C@H](O[C@H]2[C@H](O)[C@@H](O[C@H]3O[C@H](CO)[C@@H](O)[C@H](N)[C@H]3O)[C@H](N)C[C@@H]2N)[C@H](N)C[C@@H]1O [TOBRAMYCIN]
MIC [1]: 32 µg/mL (≈ 68.4 µM)
MIC [2]: 32 µg/mL (≈ 68.4 µM)
MIC [3]: 32 µg/mL (≈ 68.4 µM)
MIC [4]: 32 µg/mL (≈ 68.4 µM)
MIC [5]: 32 µg/mL (≈ 68.4 µM)
MIC [6]: 32 µg/mL (≈ 68.4 µM)
MIC [7]: 32 µg/mL (≈ 68.4 µM)
MIC [8]: 32 µg/mL (≈ 68.4 µM)
MIC [9]: 32 µg/mL (≈ 68.4 µM)
MIC [10]: 32 µg/mL (≈ 68.4 µM)
MIC [11]: 32 µg/mL (≈ 68.4 µM)
MIC [12]: 32 µg/mL (≈ 68.4 µM)
MIC [13]: 32 µg/mL (≈ 68.4 µM)

Compound: CO/N=C(\C(=O)N[C@@H]1C(=O)N2C(C(=O)[O-])=C(C[N+]3(C)CCCC3)CS[C@H]12)c1csc(N)n1 [CEFEPIME]
MIC [1]: 32 µg/mL (≈ 66.6 µM)
MIC [2]: 32 µg/mL (≈ 66.6 µM)
MIC [3]: 32 µg/mL (≈ 66.6 µM)
MIC [4]: 32 µg/mL (≈ 66.6 µM)
MIC [5]: 32 µg/mL (≈ 66.6 µM)
MIC [6]: 32 µg/mL (≈ 66.6 µM)
MIC [7]: 32 µg/mL (≈ 66.6 µM)
MIC [8]: 32 µg/mL (≈ 66.6 µM)
MIC [9]: 32 µg/mL (≈ 66.6 µM)
MIC [10]: 32 µg/mL (≈ 66.6 µM)
MIC [11]: 32 µg/mL (≈ 66.6 µM)
MIC [12]: 32 µg/mL (≈ 66.6 µM)
MIC [13]: 32 µg/mL (≈ 66.6 µM)

Compound: O=C(O)c1cn(C2CC2)c2cc(N3CCNCC3)c(F)cc2c1=O [CIPROFLOXACIN]
MIC [1]: 16 µg/mL (≈ 48.3 µM)
MIC [2]: 16 µg/mL (≈ 48.3 µM)
MIC [3]: 16 µg/mL (≈ 48.3 µM)
MIC [4]: 16 µg/mL (≈ 48.3 µM)
MIC [5]: 16 µg/mL (≈ 48.3 µM)
MIC [6]: 16 µg/mL (≈ 48.3 µM)
MIC [7]: 16 µg/mL (≈ 48.3 µM)
MIC [8]: 16 µg/mL (≈ 48.3 µM)
MIC [9]: 16 µg/mL (≈ 48.3 µM)
MIC [10]: 16 µg/mL (≈ 48.3 µM)
MIC [11]: 16 µg/mL (≈ 48.3 µM)
MIC [12]: 16 µg/mL (≈ 48.3 µM)
MIC [13]: 16 µg/mL (≈ 48.3 µM)

From ChEMBL document CHEMBL1240351, “Molecular epidemiology of metallo-beta-lactamase-producing Pseudomonas aeruginosa isolates from Norway and Sweden shows import of international clones and local clonal expansion” (2010)
